Tests used:
Test in all cases: Preemergent activity
Assay type in all cases: in vivo
Barnyard Grass = settings: Echinochloa crus-galli, pre-emergence, read-out: Preemergence Control; for pest or weed control at 70 g/ha: 0.07 kgs/hectare; for pest or weed control at 140 g/ha: 0.14 kgs/hectare; for pest or weed control at 280 g/ha: 0.28 kgs/hectare; for pest or weed control at 560 g/ha: 0.56 kgs/hectare; for pest or weed control at 1120 g/ha: 1.12 kgs/hectare
Experimental: (§1) In a representative operation, 2-[4-(2-fluoro-4-trifluoromethylphenoxy)phenoxy]propionic acid methyl ester, to be utilized in a series of tests, is dissolved in acetone to one half of the final volume (twice the final concentration) to be used and the acetone solution in each case is admixed with an equal volume of water containing 0.1 percent by weight of Tween-20 surface active material (Tween-20 is a trademark of Atlas Chemical Company). The composition, generally in the nature of an emulsion, was employed to treat separate respective seed beds of sandy loam soil of good nutrient content wherein each seed bed contained separate groups of good viable seeds, each group being of one of a known plant species. The various beds were positioned side by side and exposed to substantially identical conditions of temperature and light. Each bed was maintained so as to prevent any interaction with the test compound in different seed beds. Each seed bed was treated with the composition as a spray employing conventional spraying equipment to deposit a predetermined amount of the compound uniformly throughout the surface of the bed. Another seed bed was treated only with the acetone-Tween-20 water mixture with no chemical added to serve as a control.

Johnson Grass = settings: Sorghum halepense, pre-emergence, read-out: Preemergence Control; for pest or weed control at 70 g/ha: 0.07 kgs/hectare; for pest or weed control at 140 g/ha: 0.14 kgs/hectare; for pest or weed control at 280 g/ha: 0.28 kgs/hectare; for pest or weed control at 560 g/ha: 0.56 kgs/hectare; for pest or weed control at 1120 g/ha: 1.12 kgs/hectare
Experimental: as §1

Wheat = settings: Triticum aestivum, pre-emergence, read-out: Preemergence Control; for plant injury at 70 g/ha: 0.07 kgs/hectare; for plant injury at 140 g/ha: 0.14 kgs/hectare; for plant injury at 280 g/ha: 0.28 kgs/hectare; for plant injury at 560 g/ha: 0.56 kgs/hectare; for plant injury at 1120 g/ha: 1.12 kgs/hectare
Experimental: as §1

Wild Oats = settings: Avena fatua, pre-emergence, read-out: Preemergence Control; for pest or weed control at 70 g/ha: 0.07 kgs/hectare; for pest or weed control at 140 g/ha: 0.14 kgs/hectare; for pest or weed control at 280 g/ha: 0.28 kgs/hectare; for pest or weed control at 560 g/ha: 0.56 kgs/hectare; for pest or weed control at 1120 g/ha: 1.12 kgs/hectare
Experimental: as §1

Yellow Foxtail = settings: Setaria, pre-emergence, read-out: Preemergence Control; for pest or weed control at 70 g/ha: 0.07 kgs/hectare; for pest or weed control at 140 g/ha: 0.14 kgs/hectare; for pest or weed control at 280 g/ha: 0.28 kgs/hectare; for pest or weed control at 560 g/ha: 0.56 kgs/hectare; for pest or weed control at 1120 g/ha: 1.12 kgs/hectare
Experimental: as §1

| SMILES | pest or weed control at 70 g/ha (Barnyard Grass) [%] | pest or weed control at 140 g/ha (Barnyard Grass) [%] | pest or weed control at 280 g/ha (Barnyard Grass) [%] | pest or weed control at 560 g/ha (Barnyard Grass) [%] | pest or weed control at 1120 g/ha (Barnyard Grass) [%] | pest or weed control at 70 g/ha (Johnson Grass) [%] | pest or weed control at 140 g/ha (Johnson Grass) [%] | pest or weed control at 280 g/ha (Johnson Grass) [%] | pest or weed control at 560 g/ha (Johnson Grass) [%] | pest or weed control at 1120 g/ha (Johnson Grass) [%] | plant injury at 70 g/ha (Wheat) [%] | plant injury at 140 g/ha (Wheat) [%] | plant injury at 280 g/ha (Wheat) [%] | plant injury at 560 g/ha (Wheat) [%] | plant injury at 1120 g/ha (Wheat) [%] | pest or weed control at 70 g/ha (Wild Oats) [%] | pest or weed control at 140 g/ha (Wild Oats) [%] | pest or weed control at 280 g/ha (Wild Oats) [%] | pest or weed control at 560 g/ha (Wild Oats) [%] | pest or weed control at 1120 g/ha (Wild Oats) [%] | other results |
| --- | --- | --- | --- | --- | --- | --- | --- | --- | --- | --- | --- | --- | --- | --- | --- | --- | --- | --- | --- | --- | --- |
| CCCCOC(=O)C(C)Oc1ccc(Oc2ccc(Br)cc2F)cc1 (centres unmarked) [O(CH2)3 CH3, Propionic acid: 2-(4-(4-bromo-2-fluorophenoxy)phenoxy), n-butyl ester] | 0 | 70 | 100 | 100 | 100 | 0 | 0 | 65 | 100 | 100 | 0 | 0 | 0 | 30 | 30 | 0 | 0 | 50 | 80 | 100 | pest or weed control at 70 g/ha (Yellow Foxtail): 0%; pest or weed control at 140 g/ha (Yellow Foxtail): 40%; pest or weed control at 280 g/ha (Yellow Foxtail): 95%; pest or weed control at 560 g/ha (Yellow Foxtail): 100%; pest or weed control at 1120 g/ha (Yellow Foxtail): 100% |
| CCCCCCCCOC(=O)C(C)Oc1ccc(Oc2ccc(Br)cc2F)cc1 (centres unmarked) [O(CH2)7 CH3] | 9 | 95 | 100 | 100 | 100 | 0 | 0 | 100 | 100 | 100 | 0 | 0 | 0 | 0 | 90 | 0 | 0 | 100 | 100 | 100 | pest or weed control at 70 g/ha (Yellow Foxtail): 0%; pest or weed control at 140 g/ha (Yellow Foxtail): 0%; pest or weed control at 280 g/ha (Yellow Foxtail): 80%; pest or weed control at 560 g/ha (Yellow Foxtail): 90%; pest or weed control at 1120 g/ha (Yellow Foxtail): 100% |

Reference: patent publication US4725683A, “Fluorophenoxyphenoxypropionates and derivatives thereof” (The Dow Chemical Company, priority 1985, dated 1988)
